According to patent publication US20060045953A1 (priority 2004, published 2006):

Target: T1, hT1R1/hT1R3 umami receptor (Homo sapiens, UniProt Q7RTX0+Q7RTX1)
T1 construct: expressed in transfected cells; host or cells: HEK293 derivative stably expressing Gα15, clone I-17, expression induced with mifepristone
T1 sequence (Q7RTX1 21-841): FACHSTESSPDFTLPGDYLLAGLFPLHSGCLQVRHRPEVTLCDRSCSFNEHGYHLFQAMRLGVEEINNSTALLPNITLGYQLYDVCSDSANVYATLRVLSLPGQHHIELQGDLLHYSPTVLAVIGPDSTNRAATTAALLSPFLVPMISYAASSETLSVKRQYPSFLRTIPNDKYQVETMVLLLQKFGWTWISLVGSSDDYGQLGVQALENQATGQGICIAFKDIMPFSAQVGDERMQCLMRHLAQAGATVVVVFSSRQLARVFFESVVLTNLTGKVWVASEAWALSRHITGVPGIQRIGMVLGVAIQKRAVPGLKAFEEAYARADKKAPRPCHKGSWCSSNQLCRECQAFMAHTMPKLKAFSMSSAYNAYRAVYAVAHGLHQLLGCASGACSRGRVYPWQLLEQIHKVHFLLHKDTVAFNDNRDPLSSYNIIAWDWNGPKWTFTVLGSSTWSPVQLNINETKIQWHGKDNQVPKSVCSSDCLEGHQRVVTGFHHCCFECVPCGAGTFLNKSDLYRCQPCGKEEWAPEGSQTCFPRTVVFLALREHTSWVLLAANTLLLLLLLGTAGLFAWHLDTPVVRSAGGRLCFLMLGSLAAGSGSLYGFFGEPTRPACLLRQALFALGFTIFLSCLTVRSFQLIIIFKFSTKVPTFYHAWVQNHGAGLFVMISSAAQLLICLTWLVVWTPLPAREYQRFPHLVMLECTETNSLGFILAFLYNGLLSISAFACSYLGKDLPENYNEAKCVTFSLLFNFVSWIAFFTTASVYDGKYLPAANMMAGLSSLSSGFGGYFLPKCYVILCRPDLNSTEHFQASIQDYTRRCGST
T1 sequence (Q7RTX0 21-852): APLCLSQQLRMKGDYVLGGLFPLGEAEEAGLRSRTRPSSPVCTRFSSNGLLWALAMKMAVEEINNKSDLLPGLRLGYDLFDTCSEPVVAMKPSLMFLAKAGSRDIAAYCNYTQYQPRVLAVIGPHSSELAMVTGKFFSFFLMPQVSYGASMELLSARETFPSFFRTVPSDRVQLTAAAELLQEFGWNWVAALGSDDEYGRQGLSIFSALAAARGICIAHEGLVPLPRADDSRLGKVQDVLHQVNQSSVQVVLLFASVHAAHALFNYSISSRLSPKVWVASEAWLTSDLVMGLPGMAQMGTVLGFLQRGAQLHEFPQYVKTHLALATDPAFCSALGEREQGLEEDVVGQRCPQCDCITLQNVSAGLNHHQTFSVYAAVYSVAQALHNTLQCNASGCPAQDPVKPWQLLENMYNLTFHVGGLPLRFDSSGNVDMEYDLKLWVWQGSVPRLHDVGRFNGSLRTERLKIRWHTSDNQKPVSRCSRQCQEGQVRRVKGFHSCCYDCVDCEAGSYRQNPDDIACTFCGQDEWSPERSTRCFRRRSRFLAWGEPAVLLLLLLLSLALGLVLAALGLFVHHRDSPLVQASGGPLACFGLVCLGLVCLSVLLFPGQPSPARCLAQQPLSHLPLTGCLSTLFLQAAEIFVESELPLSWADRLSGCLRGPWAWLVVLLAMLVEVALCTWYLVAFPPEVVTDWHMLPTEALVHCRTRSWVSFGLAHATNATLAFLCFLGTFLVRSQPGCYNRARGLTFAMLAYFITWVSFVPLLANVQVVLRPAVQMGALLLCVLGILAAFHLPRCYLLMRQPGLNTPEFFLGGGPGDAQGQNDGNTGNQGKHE
Experiment: In vitro hT1R1/hT1R3 umami taste receptor activation assay (FLIPR, dose response)
Format: cell-based
Conditions: Table A, Umami Amides; read-out: Umami EC50

Question: For `CCOc1ccc(C(=O)NC(CC)CC)cc1C` [Example A64, 4-ethoxy-3-methyl-N-(pentan-3-yl)benzamide], which EC50 is on record?
Answer: 260 nM

Question: `COC[C@@H](CC(C)C)NC(=O)c1ccc(SC)c(C)c1` [Example A65, (R)-N-(1-methoxy-4-methylpentan-2-yl)-3-methyl-4-(methylthio)benzamide] was tested. Which EC50 did it give?
Answer: 290 nM

Question: With `COc1ccc(CNC(=O)c2ccncc2-n2cccc2)c(OC)c1` [Example A66, N-(2,4-dimethoxybenzyl)-3-(1H-pyrrol-1-yl)isonicotinamide] as the molecule, how does the EC50 read?
Answer: 290 nM

Question: How did the EC50 turn out when `CCCC(CCC)NC(=O)c1ccc(OCC)cc1` [Example A68, 4-ethoxy-N-(heptan-4-yl)benzamide] was run?
Answer: 320 nM

Question: For `COC(=O)[C@@H](CC(C)C)NC(=O)c1ccc(C)cc1` [Example A69, (R)-methyl 4-methyl-2-(4-methylbenzamido)pentanoate], which EC50 is on record?
Answer: 320 nM

Question: Which EC50 does the source give for `CCCC(CCC)NC(=O)c1cccc(C(F)(F)F)c1` [Example A70, N-(heptan-4-yl)-3-(trifluoromethyl)benzamide] here?
Answer: 330 nM

Question: Which EC50 does the source give for `CCCC(CCC)NC(=O)c1ccc(CC)cc1` [Example A71, 4-ethyl-N-(heptan-4-yl)benzamide] here?
Answer: 340 nM

Question: With `CCOc1ccc(C(=O)NC(CC)CC(C)C)cc1C` (centres unmarked) [Example A72, 4-ethoxy-3-methyl-N-(5-methylhexan-3-yl)benzamide] as the molecule, how does the EC50 read?
Answer: 340 nM

Question: `COC(=O)[C@@H](CC(C)C)NC(=O)c1ccc(C)c(OC)c1` [Example A73, (R)-methyl 2-(3-methoxy-4-methylbenzamido)-4-methylpentanoate] was tested. Which EC50 did it give?
Answer: 340 nM

Question: For `CCCC(CCC)NC(=O)c1ccc(OC)c(F)c1` [Example A74, 3-fluoro-N-(heptan-4-yl)-4-methoxybenzamide], which EC50 is on record?
Answer: 350 nM

Question: `CCCC(CCC)NC(=O)c1ccc(SC)cc1` [Example A75, N-(heptan-4-yl)-4-(methylthio)benzamide] was tested. Which EC50 did it give?
Answer: 390 nM

Question: `COc1ccc(C(=O)NC(C)CCc2ccccc2)cc1C` (centres unmarked) [Example A76, 4-methoxy-3-methyl-N-(4-phenylbutan-2-yl)benzamide] was tested. Which EC50 did it give?
Answer: 400 nM

Question: For `COc1ccc(C(=O)NC2CCCCC2C)cc1Cl` (centres unmarked) [Example A77, 3-chloro-4-methoxy-N-(2-methylcyclohexyl)benzamide], which EC50 is on record?
Answer: 440 nM

Question: For `C=Cc1ccc(C(=O)NC(CCC)CCC)cc1` [Example A78, N-(heptan-4-yl)-4-vinylbenzamide], which EC50 is on record?
Answer: 460 nM

Question: `CCCC(CCC)NC(=O)c1ccc(OC)cc1` [Example A79, N-(heptan-4-yl)-4-methoxybenzamide] was tested. Which EC50 did it give?
Answer: 460 nM

Question: `CCCC(C)NC(=O)c1ccc(OC)c(Cl)c1` (centres unmarked) [Example A80, 3-chloro-4-methoxy-N-(pentan-2-yl)benzamide] was tested. Which EC50 did it give?
Answer: 470 nM

Question: With `CCCC(CC)NC(=O)c1ccc(C)c(SC)c1` (centres unmarked) [Example A81, N-(hexan-3-yl)-4-methyl-3-(methylthio)benzamide] as the molecule, how does the EC50 read?
Answer: 500 nM

Question: How did the EC50 turn out when `CCCOc1ccc(C(=O)N[C@H](CC(C)C)C(=O)OC)cc1` [Example A82, (R)-methyl 4-methyl-2-(4-propoxybenzamido)pentanoate] was run?
Answer: 510 nM

Question: How did the EC50 turn out when `CCCC(CCC)NC(=O)c1cccc(C)c1` [Example A83, (heptan-4-yl)-3-methylbenzamide] was run?
Answer: 520 nM

Question: With `CCCC(CCC)NC(=O)c1cccc(OC)c1O` [Example A84, N-(heptan-4-yl)-2-hydroxy-3-methoxybenzamide] as the molecule, how does the EC50 read?
Answer: 530 nM

Question: Which EC50 does the source give for `COC(=O)[C@@H](CC(C)C)NC(=O)c1cc(C)cc(C)c1` [Example A85, (R)-methyl 2-(3,5-dimethylbenzamido)-4-methylpentanoate] here?
Answer: 530 nM

Question: With `COc1cccc(C(=O)NC2CCCc3ccccc32)c1O` (centres unmarked) [Example A87, 2-hydroxy-3-methoxy-N-(1,2,3,4-tetrahydronaphthalen-1-yl)benzamide] as the molecule, how does the EC50 read?
Answer: 540 nM

Question: Which EC50 does the source give for `CSc1ccc(C(=O)NC(C(C)C)C(C)C)cc1C` [Example A88, N-(2,4-dimethylpentan-3-yl)-3-methyl-4-(methylthio)benzamide] here?
Answer: 550 nM

Question: Which EC50 does the source give for `COc1ccc([C@@H](C)NC(=O)c2ccc(OC)c(Cl)c2)cc1` [Example A89, (R)-3-chloro-4-methoxy-N-(1-(4-methoxyphenyl)ethyl)benzamide] here?
Answer: 600 nM

Question: How did the EC50 turn out when `CCCC(CCC)NC(=O)c1cccc(OC)c1` [Example A90, N-(heptan-4-yl)-3-methoxybenzamide] was run?
Answer: 610 nM

Question: How did the EC50 turn out when `CCCc1ccc(C(=O)N[C@H](CC(C)C)C(=O)OC)cc1` [Example A91, (R)-methyl 4-methyl-2-(4-propylbenzamido)pentanoate] was run?
Answer: 620 nM

Question: `CCCC(CC(C)C)NC(=O)c1ccc(OCC)c(C)c1` (centres unmarked) [Example A92, 4-ethoxy-3-methyl-N-(2-methylheptan-4-yl)benzamide] was tested. Which EC50 did it give?
Answer: 650 nM

Question: How did the EC50 turn out when `COc1cccc(C(=O)N[C@H]2CCCc3ccccc32)c1O` [Example A93, (S)-2-hydroxy-3-methoxy-N-(1,2,3,4-tetrahydronaphthalen-1-yl)benzamide] was run?
Answer: 700 nM

Question: `COC[C@H](NC(=O)c1ccc(OC)c(C)c1)c1ccccc1` [Example A94, (R)-4-methoxy-N-(2-methoxy-1-phenylethyl)-3-methylbenzamide] was tested. Which EC50 did it give?
Answer: 720 nM

Question: Which EC50 does the source give for `COC(=O)[C@@H](CC(C)C)NC(=O)c1cc(C)c(OC)c(C)c1` [Example A95, (R)-methyl 2-(4-methoxy-3,5-dimethylbenzamido)-4-methylpentanoate] here?
Answer: 740 nM

Question: How did the EC50 turn out when `CCC(NC(=O)c1ccc(OC)c(C)c1)c1ccc(OC)cc1` (centres unmarked) [Example A96, 4-methoxy-N-(1-(4-methoxyphenyl)propyl)-3-methylbenzamide] was run?
Answer: 760 nM

Question: How did the EC50 turn out when `CCCC(COC)NC(=O)c1ccc(OC)c(C)c1` (centres unmarked) [Example A97, 4-methoxy-N-(1-methoxypentan-2-yl)-3-methylbenzamide] was run?
Answer: 850 nM

Question: Which EC50 does the source give for `COc1ccc(C(=O)NC(CO)CC(C)C)cc1Cl` (centres unmarked) [Example A98, 3-chloro-N-(1-hydroxy-4-methylpentan-2-yl)-4-methoxybenzamide] here?
Answer: 880 nM

Question: `COC(=O)[C@@H](CC(C)C)NC(=O)c1cccc(C)c1` [Example A99, (R)-methyl 4-methyl-2-(3-methylbenzamido)pentanoate] was tested. Which EC50 did it give?
Answer: 890 nM

Question: For `COc1ccc(C(=O)NC(C)c2ccc(C)cc2)cc1Cl` (centres unmarked) [Example A100, 3-chloro-4-methoxy-N-(1-p-tolylethyl)benzamide], which EC50 is on record?
Answer: 1100 nM

Question: For `CCCC(CCC)NC(=O)c1ccc(OC)cc1O` [Example A101, N-(heptan-4-yl)-2-hydroxy-4-methoxybenzamide], which EC50 is on record?
Answer: 1160 nM

Question: For `Cc1cc(C(=O)NC2CCCc3ccccc32)ccc1O` (centres unmarked) [Example A102, 4-hydroxy-3-methyl-N-(1,2,3,4-tetrahydronaphthalen-1-yl)benzamide], which EC50 is on record?
Answer: 1320 nM

Question: How did the EC50 turn out when `CCOC(=O)[C@H]1CCCC[C@H]1NC(=O)c1ccc(OC)c(Cl)c1` [Example A103, (1S,2R)-ethyl 2-(3-chloro-4-methoxybenzamido)cyclohexanecarboxylate] was run?
Answer: 1360 nM

Question: How did the EC50 turn out when `COc1ccc(CNC(=O)c2ccccc2-c2ccccc2)c(OC)c1` [Example A104, Biphenyl-2-carboxylic acid 2,4-dimethoxy-benzylamide] was run?
Answer: 1370 nM

Question: How did the EC50 turn out when `C=Cc1ccc(C(=O)N[C@H]2CCCc3ccccc32)cc1` [Example A105, (S)-N-(1,2,3,4-tetrahydronaphthalen-1-yl)-4-vinylbenzamide] was run?
Answer: 1380 nM

Question: With `COc1ccc(C(=O)NC2CCc3ccccc32)cc1Cl` (centres unmarked) [Example A106, 3-chloro-N-(2,3-dihydro-1H-inden-1-yl)-4-methoxybenzamide] as the molecule, how does the EC50 read?
Answer: 1390 nM
